Measurements: patent US10611760B2, “Therapeutic compounds as inhibitors of the orexin-1 receptor” (C4X Discovery Limited, priority 2014, dated 2020)

Tests used:
[1] = biological target: T1, hOX1R (Homo sapiens, UniProt O43613); assay: Intracellular calcium measurements using division-arrested cells, OX1; type: cell-based; settings: agonist orexin A at 2×EC50, * = single experiment, otherwise average of at least two, read-out: pIC50 OX1 (converted)
T1 sequence (O43613 1-425): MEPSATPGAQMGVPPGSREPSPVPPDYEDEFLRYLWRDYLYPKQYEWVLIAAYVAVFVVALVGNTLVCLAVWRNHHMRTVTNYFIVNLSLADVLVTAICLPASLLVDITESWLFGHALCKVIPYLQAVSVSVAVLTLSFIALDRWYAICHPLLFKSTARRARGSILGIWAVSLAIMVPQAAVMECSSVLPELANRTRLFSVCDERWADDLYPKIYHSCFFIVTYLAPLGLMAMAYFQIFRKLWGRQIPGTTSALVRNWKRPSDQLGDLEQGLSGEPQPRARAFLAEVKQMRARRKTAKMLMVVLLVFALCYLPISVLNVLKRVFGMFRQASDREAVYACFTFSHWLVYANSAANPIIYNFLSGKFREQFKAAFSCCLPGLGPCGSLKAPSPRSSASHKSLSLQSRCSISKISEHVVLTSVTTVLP
Description: (§1) Intracellular Calcium Measurements Using Division-arrested Cells (Table 1):
(§2) Test compounds are prepared as 10 mM stock solutions in DMSO, then serially diluted in half log concentrations with DMSO followed by dilution with assay buffer (HBSS (Sigma-Aldrich, H8264) containing 20 mM HEPES (Sigma-Aldrich, H4034), 0.1% (w/v) bovine serum albumin and adjusted to pH 7.4) to a top final assay concentration of 10 μM.
(§3) Human OX1 (CT-A474) and human OX2 (CT-A475) receptor-expressing division-arrested cells are plated into 384 well black, clear bottom, cell-bind plates at a seeding density of 10,000 cells/50 μL growth media. The seeded plates are incubated at 37° C. in air supplemented with 5% CO2 for 16 hrs.
(§4) The media is removed and replaced with 30 μL/well of cell loading buffer (a vial of Calcium 5 is solubilized in 22 mL of assay buffer to which a freshly prepared 250 mM solution of probenecid in 1:1 1M NaOH to assay buffer (200 μL) is added) and the cells incubated for 1 hr at 37° C. The serially diluted test compounds (10 μL/well) are added to the plate, which is then incubated for 10 mins and placed in a FlexStation III reader.

[2] = biological target: T2, hOX2R (Homo sapiens, UniProt O43614); assay: Intracellular calcium measurements using division-arrested cells, OX2; type: cell-based; settings: agonist orexin B at 2×EC50, * = single experiment, otherwise average of at least two, read-out: pIC50 OX2 (converted)
T2 sequence (O43614 1-444): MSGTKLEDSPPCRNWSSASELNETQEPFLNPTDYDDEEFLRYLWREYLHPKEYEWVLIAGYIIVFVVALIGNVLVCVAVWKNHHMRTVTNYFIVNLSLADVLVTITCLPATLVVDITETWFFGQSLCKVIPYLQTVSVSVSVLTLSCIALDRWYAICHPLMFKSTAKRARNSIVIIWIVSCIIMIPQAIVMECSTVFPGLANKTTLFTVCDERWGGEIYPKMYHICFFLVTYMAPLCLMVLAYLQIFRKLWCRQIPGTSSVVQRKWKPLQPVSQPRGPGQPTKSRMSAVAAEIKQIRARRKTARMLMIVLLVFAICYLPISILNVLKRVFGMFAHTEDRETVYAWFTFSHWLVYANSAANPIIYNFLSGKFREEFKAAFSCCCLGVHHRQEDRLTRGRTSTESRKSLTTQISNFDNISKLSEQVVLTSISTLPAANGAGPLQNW
Description: as §1, §2, §3, §4

Structure (SMILES) | IC50 [1] | IC50 [2]
CC[C@@H](CNc1ccc(Cl)cn1)N(C)C(=O)c1cc(N(C)C)ccc1-n1nccn1 [Example 23, (S)—N-(1-((5-chloropyridin-2-yl)amino)butan-2-yl)-5-(dimethylamino)-N-methyl-2-(2H-1,2,3-triazol-2-yl)benzamide] | 0.0251 µM | 2.51 µM
CC[C@@H](CNc1ccc(Cl)cn1)NC(=O)c1cc(Cl)ccc1-n1nccn1 [Example 25, (S)-5-chloro-N-(1-((5-chloropyridin-2-yl)amino)butan-2-yl)-2-(2H-1,2,3-triazol-2-yl)benzamide] | 0.631 µM | > 10 µM
Cc1nc(C(=O)N(C)[C@H](CNc2ccc(Cl)cn2)C(C)C)c(-c2ccccc2)s1 [Example 26, (S)—N-(1-((5-chloropyridin-2-yl)amino)-3-methylbutan-2-yl)-N,2-dimethyl-5-phenylthiazole-4-carboxamide] | 0.0316 µM | 2 µM
CC(C)[C@@H](CNc1ccc(Cl)cn1)N(C)C(=O)c1c(-c2ccccc2)[nH]c2ccccc12 [Example 27, (S)—N-(1-((5-chloropyridin-2-yl)amino)-3-methylbutan-2-yl)-N-methyl-2-phenyl-1H-indole-3-carboxamide] | 0.158 µM | 0.501 µM
CC(C)[C@@H](CNc1ccc(Cl)cn1)N(C)C(=O)c1ccccc1-n1nccn1 [Example 28, (S)—N-(1-((5-chloropyridin-2-yl)amino)-3-methylbutan-2-yl)-N-methyl-2-(2H-1,2,3-triazol-2-yl)benzamide] | 0.2 µM | > 10 µM
Cc1cc(C)nc(OC[C@H](C(C)C)N(C)C(=O)c2ccccc2-c2ccccc2)n1 [Example 30, (S)—N-(1-((4,6-dimethylpyrimidin-2-yl)oxy)-3-methylbutan-2-yl)-N-methyl-[1,1′-biphenyl]-2-carboxamide] | 1.58 µM | > 5.01 µM

More lines, now with the values ahead:

IC50 [1] | IC50 [2] | Structure (SMILES)
0.2 µM | > 3.16 µM | CC(C)[C@@H](COc1ccc(Cl)cn1)N(C)C(=O)c1ccccc1-c1ccccc1 [Example 34, (S)—N-(1-((5-chloropyridin-2-yl)oxy)-3-methylbutan-2-yl)-N-methyl-[1,1′-biphenyl]-2-carboxamide]
0.0794 µM | 2 µM | CC(C)[C@@H](CNc1nccc(-c2ccccc2)n1)N(C)C(=O)c1ccccc1-c1ccccc1 [Example 35, (S)—N-methyl-N-(3-methyl-1-((4-phenylpyrimidin-2-yl)amino)butan-2-yl)-[1,1′-biphenyl]-2-carboxamide]
0.0794 µM | > 3.98 µM | CC(C)[C@@H](CNc1nc2ccccc2n1C)N(C)C(=O)c1ccccc1-c1ccccc1 [Example 38, (S)—N-methyl-N-(3-methyl-1-((1-methyl-1H-benzo[d]imidazol-2-yl)amino)butan-2-yl)-[1,1′-biphenyl]-2-carboxamide]
0.0158 µM | 2.51 µM | CC[C@@H](CNc1cnc(C(F)(F)F)cn1)N(C)C(=O)c1cc(Cl)ccc1-n1nccn1 [Example 40, (S)-5-chloro-N-methyl-2-(2H-1,2,3-triazol-2-yl)-N-(1-((5-(trifluoromethyl)pyrazin-2-yl)amino)butan-2-yl)benzamide]
0.0126 µM | 2.51 µM | CC[C@@H](CNc1ccc(C(F)(F)F)cn1)N(C)C(=O)c1nc(C)ccc1-n1nccn1 [Example 48, (S)—N,6-dimethyl-3-(2H-1,2,3-triazol-2-yl)-N-(1-((5-(trifluoromethyl)pyridin-2-yl)amino)butan-2-yl)picolinamide]
0.631 µM | > 10 µM | Cc1cc(C(=O)N(C)[C@H](CNc2ccc(Cl)cn2)C(C)C)c2ccccc2n1 [Example 51, (S)—N-(1-((5-chloropyridin-2-yl)amino)-3-methylbutan-2-yl)-N,2-dimethylquinoline-4-carboxamide]
1 µM | > 7.94 µM | CC(C)[C@@H](CNc1ccc(Cl)cn1)N(C)C(=O)c1ccccc1OC(F)(F)F [Example 52, (S)—N-(1-((5-chloropyridin-2-yl)amino)-3-methylbutan-2-yl)-N-methyl-2-(trifluoromethoxy)benzamide]
